In patent US10214567B2, “Tagged hepadnavirus E antigen and its use in screening antiviral substances” (Drexel University, priority 2014, dated 2019):
“Also recorded” adds a separate entry of the source.

Test system: HA-HBeAg production from HepBHAe13 cells
Test: HA-HBeAg CLIA in HepBHAe13 cells treated with cccDNA formation inhibitors (96-well-plate)
Assay type: cell-based, Hepatitis B virus (HBV)
Conditions: tetracycline removed, compounds at indicated concentrations, 0.5% DMSO, day 12 post treatment (FIG. 11)
From the text: According to another aspect of the present invention, the in vitro assay method can be used to evaluate compounds/candidate molecules that suppress cccDNA formation. Briefly, cells can be seeded into culture wells and tetracycline can be omitted at the day when cell monolayer becomes confluent. Simultaneously, test compound can be added and tagged hepadnavirus e antigen (like HA-HBeAg) in the medium can be measured by ELISA at the end of treatment (approximately 6 days). […] As an expanding aspect of this in vitro assay method, it is worth to note that the reduction of tagged hepadnavirus e antigen (like HA-HBeAg) in this assay may also indicate that the compound has the potential to inhibit hepadnavirus (like HBV) DNA replication. Such possibility can be investigated through direct measurement of viral core DNA by Southern blot and/or qPCR. […]
FIG. 11. […] At day 12 post treatment, culture fluid was subjected to HA-HBeAg CLIA and readout was plotted as percentage (mean±SD) to control.
For chemiluminescence enzyme immunoassay (CLIA) detection of HA-tagged HBeAg, high sensitivity streptavidin coated plate (Black, cat#: 15525, Thermo Scientific) was washed by PBST (PBS plus 0.05% Tween 20) for 3 times, and then incubated with 50 μl of anti-HA-biotin (cat#: A00203, Genscript; 5 μg/ml in PBS) at RT for 30 min, followed by wash with 200 μl PBST for 3 times. […] The plate was read on a luminometer.

SMILES	HA-HBeAg level in culture fluid (CLIA, percentage to control)
Cc1nc2cc(NC(=O)c3ccc(S(=O)(=O)N(C)Cc4ccccc4)cc3)ccc2s1 [CCC-0346]	dose-dependent inhibition of HA-HBeAg production; also recorded: dose dependently reduced the HA-HBeAg level
O=C(CN(c1cc(C(F)(F)F)ccc1Cl)S(=O)(=O)c1ccccc1)NCc1ccncc1 [CCC-0975]	dose-dependent inhibition of HA-HBeAg production; also recorded: dose dependently reduced the HA-HBeAg level
